# “Also recorded” adds a separate entry of the source. Residues, ends and D or L forms follow the SMILES beside them. No end group written: not given here.
# System: CCl4-treated mice
# Assay: CCl4 induced liver fibrosis in mice, collagen in the liver as marker of matrix accumulation
# Format: in vivo
# Conditions: Example 2, Figure 1, CCl4 for 6 weeks, peptides 25 mg/kg/mouse/day intraperitoneal, daily from day 32 for 10 days
# Protocol: Figure 1 Prevention of fibrosis progression by proline-containing cyclic and amidated linear peptides. Mice were injected for 6 weeks with CCl4 in order to induce liver fibrosis. Starting on day 32 the mice received daily intraperitoneal injections of 25 mg/kg/mouse/day of the peptides in 0.9% NaCl for a total of 10 days. CCl4-treated mice also received NaCl 0.9%. The healthy control group (CT) only received 0.9% NaCl. N= 4/ 10/ 8/ 5/ 10/ 8/ 11/ 7 in two experiments. The following peptides were tested on CCl4-treated mice: cyclic Pro-Gly-Leu-Gln-Gly-Glu (Cyclic PGLQGE), and compared to two controls: cyclic Pro-Gly-Leu-Asn-Gly-Glu (Cyclic CT1+P: cyclic PGLNGE) and cyclic Pro-Gly-Leu-Hyp-Gly-Glu (Cyclic CT2+P: cyclic PGLOGE). Linear Gly-Leu-Gln-Gly-Glu-NH2 (Linear GLQGE-NH2) was also tested and compared to two controls: linear Gly-Leu-Asn-Gly-Glu-NH2 (Linear CT1-NH2: linear GLNGE-NH2) and linear Gly-Leu-Hyp-Gly-Glu-NH2 (Linear CT2-NH2: linear GLOGE-NH2). *p<0.05. Evaluated by t-test. Data presented as mean +/- SEM. Figure 2 Prevention of fibrosis progression by cyclic peptides and acetylated linear peptides. Mice were injected for 6 weeks with CCl4 in order to induce liver fibrosis. Starting on day 32 the mice received daily intraperitoneal injections of 25 mg/kg/mouse/day of the peptides in 0.9% NaCl for a total of 10 days. CCl4-treated mice also received NaCl 0.9%. The healthy control group (CT) only received 0.9% NaCl. N= 5/ 18/ 9/ 9/ 6/ 5/ 4/ 4 in two experiments. The following peptides were tested on CCl4-treated mice: cyclic Gly-Leu-Gln-Gly-Glu (Cyclic GLQGE), and compared to two controls: cyclic Gly-Leu-Asn-Gly-Glu (Cyclic CT1: cyclic GLNGE) and cyclic Gly-Leu-Hyp-Gly-Glu (Cyclic CT2: cyclic GLOGE). Linear Ac-Gly-Leu-Gln-Gly-Glu (Linear Ac-GLQGE) was also tested and compared to two controls: linear Ac-Gly-Leu-Asn-Gly-Glu (Linear Ac-CT1: linear Ac-GLNGE) and linear Ac-Gly-Leu-Hyp-Gly-Glu (Linear Ac-CT2: linear Ac-GLOGE). *p<0.05, **p<0.005. Evaluated by t-test. Data presented as mean +/- SEM.
# Mice were injected for 6 weeks with CCl4 in order to induce liver fibrosis. Starting on day 32 the mice received daily intraperitoneal injections of the peptides at a final dose of 25 mg/kg/mouse/day diluted in NaCl 0.9% for a total of 10 days. In these experiments, the following peptides were tested: cyclic peptide Pro-Gly-Leu-Gln-Gly-Glu, cyclic peptide Pro-Gly-Leu-Asn-Gly-Glu, cyclic peptide Pro-Gly-Leu-Hyp-Gly-Glu, linear peptide Gly-Leu-Gln-Gly-Glu-NH2, linear peptide Gly-Leu-Asn-Gly-Glu-NH2, linear peptide Gly-Leu-Hyp-Gly-Glu-NH2.
# Mice were injected for 6 weeks with CCl4 in order to induce liver fibrosis. Starting on day 32 the mice received daily intraperitoneal injections of the peptides at a final dose of 25 mg/kg/mouse/day diluted in NaCl 0.9% for a total of 10 days. In these experiments, the following peptides were tested: cyclic peptide Gly-Leu-Gln-Gly-Glu, cyclic peptide Gly-Leu-Asn-Gly-Glu, cyclic peptide Gly-Leu-Hyp-Gly-Glu, linear peptide Ac-Gly-Leu-Gln-Gly-Glu, linear peptide Ac-Gly-Leu-Asn-Gly-Glu, linear peptide Ac-Gly-Leu-Hyp-Gly-Glu.
row,Compound,collagen accumulation
1,"CC(C)C[C@@H]1NC(=O)CNC(=O)[C@@H]2CCCN2C(=O)[C@H](CCC(=O)O)NC(=O)CNC(=O)[C@H](CC(N)=O)NC1=O [Cyclic CT1+P, Pro-Gly-Leu-Asn-Gly-Glu] (HELM PEPTIDE1{E.P.G.L.N.G}$PEPTIDE1,PEPTIDE1,1:R1-6:R2$$$V2.0)",neither the cyclic forms of the control peptides (with Pro: Pro-Gly-Leu-Asn-Gly-Glu or Pro-Gly-Leu-Hyp-Gly-Glu) nor the linear forms of the control peptides Gly-Leu-Asn-Gly-Glu-NH2 and Gly-Leu-Hyp-Gly-Glu-NH2 were able to reduce collagen amount in the liver
2,"CC(C)C[C@@H]1NC(=O)CNC(=O)[C@@H]2CCCN2C(=O)[C@H](CCC(=O)O)NC(=O)CNC(=O)[C@@H]2C[C@@H](O)CN2C1=O [Cyclic CT2+P, Pro-Gly-Leu-Hyp-Gly-Glu] (HELM PEPTIDE1{E.P.G.L.[Hyp].G}$PEPTIDE1,PEPTIDE1,1:R1-6:R2$$$V2.0)",neither the cyclic forms of the control peptides (with Pro: Pro-Gly-Leu-Asn-Gly-Glu or Pro-Gly-Leu-Hyp-Gly-Glu) nor the linear forms of the control peptides Gly-Leu-Asn-Gly-Glu-NH2 and Gly-Leu-Hyp-Gly-Glu-NH2 were able to reduce collagen amount in the liver
3,"CC(C)C[C@@H]1NC(=O)CNC(=O)[C@@H]2CCCN2C(=O)[C@H](CCC(=O)O)NC(=O)CNC(=O)[C@H](CCC(N)=O)NC1=O [Cyclic PGLQGE, Pro-Gly-Leu-Gln-Gly-Glu] (HELM PEPTIDE1{E.P.G.L.Q.G}$PEPTIDE1,PEPTIDE1,1:R1-6:R2$$$V2.0)",able to significantly reduce collagen accumulation
4,"GLQGE-NH2 [Linear GLQGE-NH2, Gly-Leu-Gln-Gly-Glu-NH2]",able to significantly reduce CCl4-induced collagen accumulation

# Same assay, conditions: Example 3, Figure 2, CCl4 for 6 weeks, peptides 25 mg/kg/mouse/day intraperitoneal, daily from day 32 for 10 days
row,Compound,collagen accumulation
1,"CC(C)C[C@@H]1NC(=O)CNC(=O)[C@H](CCC(=O)O)NC(=O)CNC(=O)[C@H](CC(N)=O)NC1=O [Cyclic CT1, Gly-Leu-Asn-Gly-Glu] (HELM PEPTIDE1{E.G.L.N.G}$PEPTIDE1,PEPTIDE1,1:R1-5:R2$$$V2.0)",failed to inhibit collagen accumulation
2,"CC(C)C[C@@H]1NC(=O)CNC(=O)[C@H](CCC(=O)O)NC(=O)CNC(=O)[C@@H]2C[C@@H](O)CN2C1=O [Cyclic CT2, Gly-Leu-Hyp-Gly-Glu] (HELM PEPTIDE1{E.G.L.[Hyp].G}$PEPTIDE1,PEPTIDE1,1:R1-5:R2$$$V2.0)",failed to inhibit collagen accumulation
3,"CC(C)C[C@@H]1NC(=O)CNC(=O)[C@H](CCC(=O)O)NC(=O)CNC(=O)[C@H](CCC(N)=O)NC1=O [Cyclic GLQGE, Gly-Leu-Gln-Gly-Glu] (HELM PEPTIDE1{E.G.L.Q.G}$PEPTIDE1,PEPTIDE1,1:R1-5:R2$$$V2.0)",larger inhibitory effect compared to the linear Gly-Leu-Gln-Gly-Glu-NH2 or Ac-Gly-Leu-Gln-Gly-Glu
4,"CC(=O)NCC(=O)N[C@@H](CC(C)C)C(=O)N1C[C@H](O)C[C@H]1C(=O)NCC(=O)N[C@@H](CCC(=O)O)C(=O)O [Linear Ac-CT2, Ac-Gly-Leu-Hyp-Gly-Glu]",neither the cyclic forms nor the linear forms of the peptides Ac-Gly-Leu-Asn-Gly-Glu and Ac-Gly-Leu-Hyp-Gly-Glu were able to reduce collagen amount in the liver
5,"Ac-GLNGE [Linear Ac-CT1, Ac-Gly-Leu-Asn-Gly-Glu]",neither the cyclic forms nor the linear forms of the peptides Ac-Gly-Leu-Asn-Gly-Glu and Ac-Gly-Leu-Hyp-Gly-Glu were able to reduce collagen amount in the liver
6,"Ac-GLQGE [Linear Ac-GLQGE, Ac-Gly-Leu-Gln-Gly-Glu]",able to significantly reduce CCl4-induced collagen accumulation

# Same assay, conditions: Example 3, Figure 2, CCl4 for 6 weeks, peptides 25 mg/kg/mouse/day intraperitoneal, daily from day 32 for 10 days, listed as cyclic peptide Gly-Leu-Gln-Gly-Glu
row,Compound,collagen accumulation
1,"CC(C)C[C@@H]1NC(=O)CNC(=O)[C@H](CCC(=O)O)NC(=O)CNC(=O)[C@H](CCC(N)=O)NC1=O [Cyclic GLQGE, Gly-Leu-Gln-Gly-Glu] (HELM PEPTIDE1{E.G.L.Q.G}$PEPTIDE1,PEPTIDE1,1:R1-5:R2$$$V2.0)",able to significantly reduce collagen accumulation; also recorded: more efficient in reducing collagen accumulation also in comparison to the cyclic peptide with proline Pro-Gly-Leu-Gln-Gly-Glu

# System: TGFβ
# Assay: unstimulated TGFβ expression in murine hepatocytes (data not shown)
# Format: cell-based
# Conditions: not given
row,Compound,unstimulated TGFβ expression
1,"CC(C)C[C@H](NC(=O)CN)C(=O)N1C[C@H](O)C[C@H]1C(=O)NCC(=O)N[C@@H](CCC(=O)O)C(N)=O [Linear CT2-NH2, Gly-Leu-Hyp-Gly-Glu-NH2]",had no effect
2,"GLNGE-NH2 [Linear CT1-NH2, Gly-Leu-Asn-Gly-Glu-NH2]",had no effect
3,"GLQGE-NH2 [Linear GLQGE-NH2, Gly-Leu-Gln-Gly-Glu-NH2]",efficiently inhibits unstimulated TGFβ expression in murine hepatocytes
